Laboratory results reported in US20240287154A1, “MC3R AGONIST PEPTIDES” (The Regents of the University of Michigan, priority 2021, published 2024).
Non-standard residues stand in square brackets, D forms with d. Residues, ends and D or L forms follow the SMILES beside them. Bip = N[C@@H](Cc1ccc(-c2ccccc2)cc1)C(=O)O; Phe(4-Cl) = N[C@@H](Cc1ccc(Cl)cc1)C(=O)O; Phe(4-I) = N[C@@H](Cc1ccc(I)cc1)C(=O)O; NMeH = CN[C@@H](Cc1c[nH]cn1)C(=O)O; NMeK = CN[C@@H](CCCCN)C(=O)O; dNle = CCCC[C@@H](N)C(=O)O; Nle = CCCC[C@H](N)C(=O)O; dAbu = CC[C@@H](N)C(=O)O; dNMeA = CN[C@H](C)C(=O)O; Aib = CC(C)(N)C(=O)O

Target: human MC4R (Homo sapiens, UniProt P32245)
Assay: Intracellular cAMP levels in live cells, MC3R selectivity relative to MC4R
Type: cell-based
Conditions: cAMP assays in human MC3R and human MC4R stable cell lines
Experimental: The stable cell lines were grown and maintained in selection media consisting of Dulbecco's modified Eagle media (DMEM) with 4.5 g/l D-glucose, and 4 mM L-glutamine (Thermo Fisher Scientific, Waltham, MA), supplemented with 10% fetal bovine serum, 100 units/ml penicillin, 100 μg/ml streptomycin, 2.5 μg/ml amphotericin B, 200 μg/ml hygromycin B (for positive selection of the GScAMP22f luciferase reporter), and Geneticin™ (G418) 700 μg/ml (for MC3R or MC4R selection). Actual serum concentration during the assay is estimated to be about 1%. Cell line identity is routinely verified by qPCR and MC3R- and MC4R-specific oligonucleotides.
The assay for the determination of the CAMP response in live cells was described previously. […] Ccells were seeded at a density of 20,000 cells per well using 384-well poly-D lysine-coated, clear bottom, and black-wall assay plates (Corning Inc. Corning, NJ). Cells were allowed to attach to the plates for 18 to 24 h after which growth media was removed and 20 ul of 4% D-luciferin (Promega) in CO2 independent, serum-free medium (Thermo Fisher Scientific) was added to each well. […] Intracellular cAMP levels were measured using an FDSS 7000EX Functional Drug Screening System (Hamamatsu Photonics, Hamamatsu, Japan) in the Center for Chemical Genomics at the Life Sciences Institute. This instrument allowed the in-line addition of test-peptides and receptor agonists while simultaneously acquiring the luminescence signal from live cells. […] A submaximal forskolin (20 μM) concentration was also included to serve as a normalization reference to account for cell number variations and differences in assay transducer efficiency between cell lines.
With this set up it was possible to evaluate the direct agonist effect of the test-peptides on the MC3R and MC4R cell lines during measurement window 1, while the antagonist profile in the presence of EC90 α-MSH was determined on measurement window 2. […] EC50 or IC50 potency values were determined by non-linear regression by fitting the data to a sigmoid four-parameter variable slope model using the GraphPad Prism version 8.4 software package (San Diego CA).

Chain of human MC4R (P32245 whole entry): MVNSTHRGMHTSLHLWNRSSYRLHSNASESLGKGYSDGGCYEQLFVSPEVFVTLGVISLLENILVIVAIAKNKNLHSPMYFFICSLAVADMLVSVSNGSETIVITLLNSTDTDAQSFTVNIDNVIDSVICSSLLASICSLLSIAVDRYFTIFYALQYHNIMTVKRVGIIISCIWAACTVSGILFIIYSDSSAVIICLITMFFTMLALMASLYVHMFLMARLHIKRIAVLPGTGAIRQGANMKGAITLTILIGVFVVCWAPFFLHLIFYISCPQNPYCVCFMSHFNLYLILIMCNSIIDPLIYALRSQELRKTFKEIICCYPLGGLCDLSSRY

Row | SMILES | MC3R selectivity (relative to MC4R)
1 | CCCC[C@H](NC(C)=O)C(=O)N[C@H](C)C(=O)N[C@@H](Cc1c[nH]cn1)C(=O)N[C@@H](Cc1ccccc1)C(=O)N[C@@H](CCCNC(=N)N)C(=O)N[C@H](Cc1c[nH]c2ccccc12)C(=O)N[C@@H](CC(=O)O)C(=O)N[C@@H](CCCNC(=N)N)C(=O)N[C@H](Cc1ccccc1)C(N)=O [CTX-1159, Nle-D-Ala-His-Phe-Arg-D-Trp-Asp-Arg-D-Phe] (Ac-[Nle][dA]HFR[dW]DR[dF]-NH2) | 213
2 | CCCC[C@H](NC(C)=O)C(=O)N[C@H](C)C(=O)N[C@@H](Cc1c[nH]cn1)C(=O)N[C@@H](Cc1ccccc1)C(=O)N[C@@H](CCCNC(=N)N)C(=O)N[C@H](Cc1c[nH]c2ccccc12)C(=O)N[C@@H](CC(=O)O)C(=O)N[C@@H](CCCNC(=N)N)C(=O)N[C@H](Cc1ccccc1)C(=O)N[C@@H](CCCCN)C(=O)O [CTX-1160, Nle-D-Ala-His-Phe-Arg-D-Trp-Asp-Arg-D-Phe-Lys] (Ac-[Nle][dA]HFR[dW]DR[dF]K-OH) | 1,257
3 | CCCC[C@H](NC(C)=O)C(=O)N[C@H](C)C(=O)N[C@@H](Cc1c[nH]cn1)C(=O)N[C@@H](Cc1ccccc1)C(=O)N[C@@H](CCCNC(=N)N)C(=O)N[C@H](Cc1c[nH]c2ccccc12)C(=O)N[C@@H](CC(=O)O)C(=O)N[C@@H](CCCNC(=N)N)C(N)=O [CTX-1163, Nle-D-Ala-His-Phe-Arg-D-Trp-Asp-Arg] (Ac-[Nle][dA]HFR[dW]DR-NH2) | 282
4 | CCCC[C@H](NC(C)=O)C(=O)N[C@H](C)C(=O)N[C@@H](Cc1c[nH]cn1)C(=O)N[C@@H](Cc1ccc(Cl)cc1)C(=O)N[C@@H](CCCNC(=N)N)C(=O)N[C@H](Cc1c[nH]c2ccccc12)C(=O)N[C@@H](CC(=O)O)C(=O)N[C@@H](CCCNC(=N)N)C(=O)N[C@@H](Cc1ccccc1)C(=O)NCC(=O)O [CTX-1166, Nle-D-Ala-His-Phe(4-Cl)-Arg-D-Trp-Asp-Arg-Phe-Gly] (Ac-[Nle][dA]H[Phe(4-Cl)]R[dW]DRFG-OH) | 3099
5 | CCCC[C@H](NC(C)=O)C(=O)N[C@H](C)C(=O)N[C@@H](Cc1c[nH]cn1)C(=O)N[C@@H](Cc1ccc(-c2ccccc2)cc1)C(=O)N[C@@H](CCCNC(=N)N)C(=O)N[C@H](Cc1c[nH]c2ccccc12)C(=O)N[C@@H](CC(=O)O)C(=O)N[C@@H](CCCNC(=N)N)C(=O)N[C@@H](Cc1ccccc1)C(=O)NCC(N)=O [CTX-1168, Nle-D-Ala-His-Bip-Arg-D-Trp-Asp-Arg-Phe-Gly] (Ac-[Nle][dA]H[Bip]R[dW]DRFG-NH2) | 485
6 | CCCC[C@H](NC(C)=O)C(=O)N[C@H](C)C(=O)N[C@@H](Cc1c[nH]cn1)C(=O)N[C@@H](Cc1ccc(I)cc1)C(=O)N[C@@H](CCCNC(=N)N)C(=O)N[C@H](Cc1c[nH]c2ccccc12)C(=O)N[C@@H](CC(=O)O)C(=O)N[C@@H](CCCNC(=N)N)C(N)=O [CTX-1170, Nle-D-Ala-His-Phe(4-I)-Arg-D-Trp-Asp-Arg] (Ac-[Nle][dA]H[Phe(4-I)]R[dW]DR-NH2) | 67
7 | CCCC[C@H](NC(=O)[C@@H](NC(=O)[C@H](N)Cc1ccc(O)cc1)C(C)C)C(=O)N[C@H](C)C(=O)N[C@@H](Cc1c[nH]cn1)C(=O)N[C@@H](Cc1ccc(I)cc1)C(=O)N[C@@H](CCCNC(=N)N)C(=O)N[C@H](Cc1c[nH]c2ccccc12)C(=O)N[C@@H](CC(=O)O)C(N)=O [CTX-1171, D-Tyr-Val-Nle-D-Ala-His-Phe(4-I)-Arg-D-Trp-Asp] (H-[dY]V[Nle][dA]H[Phe(4-I)]R[dW]D-NH2) | 234
8 | CCCC[C@H](NC(C)=O)C(=O)N[C@@H](C(=O)N[C@@H](Cc1c[nH]cn1)C(=O)N[C@@H](Cc1ccccc1)C(=O)N[C@@H](CCCNC(=N)N)C(=O)N[C@H](Cc1c[nH]c2ccccc12)C(=O)N[C@@H](CC(=O)O)C(=O)N[C@@H](CCCNC(=N)N)C(=O)N[C@@H](Cc1ccccc1)C(=O)NCC(=O)O)C(C)C [CTX-1181, Nle-D-Val-His-Phe-Arg-D-Trp-Asp-Arg-Phe-Gly] (Ac-[Nle][dV]HFR[dW]DRFG-OH) | 718
9 | CCCC[C@H](NC(C)=O)C(=O)N[C@H](CCCC)C(=O)N[C@@H](Cc1c[nH]cn1)C(=O)N[C@@H](Cc1ccccc1)C(=O)N[C@@H](CCCNC(=N)N)C(=O)N[C@H](Cc1c[nH]c2ccccc12)C(=O)N[C@@H](CC(=O)O)C(=O)N[C@@H](CCCNC(=N)N)C(=O)N[C@@H](Cc1ccccc1)C(=O)NCC(=O)O [CTX-1182, Nle-D-Nle-His-Phe-Arg-D-Trp-Asp-Arg-Phe-Gly] (Ac-[Nle][dNle]HFR[dW]DRFG-OH) | 1406
10 | CCCC[C@H](NC(C)=O)C(=O)N(C)[C@H](C)C(=O)N[C@@H](Cc1c[nH]cn1)C(=O)N[C@@H](Cc1ccccc1)C(=O)N[C@@H](CCCNC(=N)N)C(=O)N[C@H](Cc1c[nH]c2ccccc12)C(=O)N[C@@H](CC(=O)O)C(=O)N[C@@H](CCCNC(=N)N)C(=O)N[C@@H](Cc1ccccc1)C(=O)NCC(=O)O [CTX-1183, Nle-NMe-D-Ala-His-Phe-Arg-D-Trp-Asp-Arg-Phe-Gly] (Ac-[Nle][dNMeA]HFR[dW]DRFG-OH) | 515
11 | CCCC[C@H](NC(C)=O)C(=O)N1CCC[C@@H]1C(=O)N[C@@H](Cc1c[nH]cn1)C(=O)N[C@@H](Cc1ccccc1)C(=O)N[C@@H](CCCNC(=N)N)C(=O)N[C@H](Cc1c[nH]c2ccccc12)C(=O)N[C@@H](CC(=O)O)C(=O)N[C@@H](CCCNC(=N)N)C(=O)N[C@@H](Cc1ccccc1)C(=O)NCC(=O)O [CTX-1184, Nle-D-Pro-His-Phe-Arg-D-Trp-Asp-Arg-Phe-Gly] (Ac-[Nle][dP]HFR[dW]DRFG-OH) | 28
12 | CCCC[C@H](NC(C)=O)C(=O)NCC(=O)N[C@@H](Cc1c[nH]cn1)C(=O)N[C@@H](Cc1ccccc1)C(=O)N[C@@H](CCCNC(=N)N)C(=O)N[C@H](Cc1c[nH]c2ccccc12)C(=O)N[C@@H](CC(=O)O)C(=O)N[C@@H](CCCNC(=N)N)C(=O)N[C@@H](Cc1ccccc1)C(=O)NCC(=O)O [CTX-1185, Nle-Gly-His-Phe-Arg-D-Trp-Asp-Arg-Phe-Gly] (Ac-[Nle]GHFR[dW]DRFG-OH) | 2,312
13 | CCCC[C@H](NC(C)=O)C(=O)N[C@H](C)C(=O)N(C)[C@@H](Cc1c[nH]cn1)C(=O)N[C@@H](Cc1ccccc1)C(=O)N[C@@H](CCCNC(=N)N)C(=O)N[C@H](Cc1c[nH]c2ccccc12)C(=O)N[C@@H](CC(=O)O)C(=O)N[C@@H](CCCNC(=N)N)C(=O)N[C@@H](Cc1ccccc1)C(=O)NCC(=O)O [CTX-1186, Nle-D-Ala-NMe-His-Phe-Arg-D-Trp-Asp-Arg-Phe-Gly] (Ac-[Nle][dA][NMeH]FR[dW]DRFG-OH) | 1884
14 | CCCC[C@H](NC(C)=O)C(=O)N[C@H](C)C(=O)N(C)[C@@H](CCCCN)C(=O)N[C@@H](Cc1ccccc1)C(=O)N[C@@H](CCCNC(=N)N)C(=O)N[C@H](Cc1c[nH]c2ccccc12)C(=O)N[C@@H](CC(=O)O)C(=O)N[C@@H](CCCNC(=N)N)C(=O)N[C@@H](Cc1ccccc1)C(=O)NCC(=O)O [CTX-1189, Nle-D-Ala-NMe-Lys-Phe-Arg-D-Trp-Asp-Arg-Phe-Gly] (Ac-[Nle][dA][NMeK]FR[dW]DRFG-OH) | 1
15 | CC[C@@H](NC(=O)[C@H](CCC(=O)O)NC(=O)[C@@H](NC(=O)[C@H](Cc1ccc(O)cc1)NC(C)=O)C(C)C)C(=O)N[C@@H](Cc1c[nH]cn1)C(=O)N[C@@H](Cc1ccc(I)cc1)C(=O)N[C@@H](CCCNC(=N)N)C(=O)N[C@H](Cc1c[nH]c2ccccc12)C(=O)N[C@@H](CC(=O)O)C(=O)N[C@@H](CCCNC(=N)N)C(=O)N[C@@H](Cc1ccccc1)C(=O)NCC(=O)O [CTX-1194, Tyr-Val-Glu-D-Abu-His-Phe(4-I)-Arg-D-Trp-Asp-Arg-Phe-Gly] (Ac-YVE[dAbu]H[Phe(4-I)]R[dW]DRFG-OH) | 49
16 | CC(=O)N[C@@H](Cc1ccc(O)cc1)C(=O)N[C@H](C(=O)N[C@@H](CCC(=O)O)C(=O)NC(C)(C)C(=O)N[C@@H](Cc1c[nH]cn1)C(=O)N[C@@H](Cc1ccc(I)cc1)C(=O)N[C@@H](CCCNC(=N)N)C(=O)N[C@H](Cc1c[nH]c2ccccc12)C(=O)N[C@@H](CC(=O)O)C(=O)N[C@@H](CCCNC(=N)N)C(=O)N[C@@H](Cc1ccccc1)C(=O)NCC(=O)O)C(C)C [CTX-1195, Tyr-Val-Glu-Aib-His-Phe(4-I)-Arg-D-Trp-Asp-Arg-Phe-Gly] (Ac-YVE[Aib]H[Phe(4-I)]R[dW]DRFG-OH) | 51
17 | CCCC[C@H](NC(C)=O)C(=O)N[C@H](C)C(=O)N[C@@H](CCCNC(=N)N)C(=O)N[C@@H](Cc1ccc(I)cc1)C(=O)N[C@@H](CCCNC(=N)N)C(=O)N[C@H](Cc1c[nH]c2ccccc12)C(=O)N[C@@H](CC(=O)O)C(=O)N[C@@H](CCCNC(=N)N)C(=O)N[C@@H](Cc1ccccc1)C(=O)NCC(=O)O [CTX-1197, Nle-D-Ala-Arg-Phe(4-I)-Arg-D-Trp-Asp-Arg-Phe-Gly] (Ac-[Nle][dA]R[Phe(4-I)]R[dW]DRFG-OH) | 250
